Reference: patent US12145914B2, “Compound having oxadiazole and pharmaceutical composition containing the same” (SK BIOPHARMACEUTICALS CO., LTD., priority 2018, dated 2024)

Tested on: focal onset seizures induced by electrostimulation of 44 mA, 6 Hz, 3 sec in ICR mouse
Assay: 6 Hz method for screening anticonvulsants (6 Hz, 44 mA electrostimulation)
Format: in vivo
Conditions: male ICR mice, intraperitoneal (ip), electrostimulation 44 mA, 3 sec to the eye, number of non-seizure animals/number of animals used
Text: The utility of the compounds according to the present invention as an anticonvulsant agent has been investigated by the 6 Hz method, which has been well established as pharmacological screening methods of convulsant agents for focal onset seizures. The procedure of the 6 Hz method for screening anticonvulsant was as follows:
1) Preparation of Experimental Animals
Male ICR mice are purchased from Orient Bio, Inc. of Korea, and are stored and managed according to laboratory animal management standards of the Institutional Animal Care and Use Committee (IACUC) by putting the same in a wire net cage under an environment in which an ambient temperature of 19 to 25° C., 40 to 60% relative humidity and 12 hour periods of light/dark were auto-controlled, and water was freely taken. After stabilization for a week, mice with a body weight of 18 to 23 g were used in the experiment.
2) Evaluation of the Anticonvulsant Effect of a Compound
5% Tetracaine (Sigma) was added to both eyes to provide a local anesthetic effect at 5 to 10 minutes before the period of electrical stimulation at the animal ICR mouse. The compounds to be tested were dissolved in distilled water in which 30% polyethylene glycol 300+5% dimethylsulfoxide+5% Cremophor was dissolved and administered intraperitoneally (ip) to the animal at a dosage volume of 10 mL/kg. Then, electrostimulation of 44 mA, 6 Hz, and 3 sec was applied to the eye to induce focus-generating seizures. After the electrical stimulation, the presence of seizures due to drug effects was confirmed, and the ratio of animals showing no seizures was expressed as a protection rate (the number of non-seizure animals/the number of animals used in experiments=protection rate). […]

SMILES	6 Hz, 44 mA protection rate
Cc1nnc(CC(O)c2cc(-c3ccc(Cl)cc3)ccc2F)o1 (stereo not drawn) [Example 1, 1-[5-(4-chlorophenyl)-2-fluoro-phenyl]-2-(5-methyl-1,3,4-oxadiazol-2-yl)ethanol]	++ (0.6 to 0.8 are scored as ‘++’)
Cc1nnc(CC(O)c2cc(-c3ccc(C(F)(F)F)cc3)ccc2F)o1 (stereo not drawn) [Example 2, 1-[2-fluoro-5-[4-(trifluoromethyl)phenyl]phenyl]-2-(5-methyl-1,3,4-oxadiazol-2-yl)ethanol]	++ (0.6 to 0.8 are scored as ‘++’)
Cc1nnc(CC(OC(N)=O)c2cc(-c3ccc(C(F)(F)F)cc3)ccc2F)o1 (stereo not drawn) [Example 3, [1-[2-fluoro-5-[4-(trifluoromethyl)phenyl]phenyl]-2-(5-methyl-1,3,4-oxadiazole-2-yl)ethyl] carbamate]	++ (0.6 to 0.8 are scored as ‘++’)
Cc1nnc(CC(OC(N)=O)c2cc(-c3ccc(Cl)cc3)ccc2F)o1 (stereo not drawn) [Example 4, [1-[5-(4-chlorophenyl)-2-fluoro-phenyl]-2-(5-methyl-1,3,4-oxadiazol-2-yl)ethyl] carbamate]	++ (0.6 to 0.8 are scored as ‘++’)
OC(Cc1nnco1)c1cc(-c2ccc(C(F)(F)F)cc2)ccc1F (stereo not drawn) [Example 5, 1-[2-fluoro-5-[4-(trifluoromethyl)phenyl]phenyl]-2-(1,3,4-oxadiazol-2-yl)ethanol]	+ (0.2 to 0.6 are scored as ‘+’)
Cc1nnc(CC(OC(N)=O)c2cccc(-c3ccc(C(F)(F)F)cc3)c2)o1 (stereo not drawn) [Example 7, [2-(5-methyl-1,3,4-oxadiazol-2-yl)-1-[3-[4-(trifluoromethyl)phenyl]phenyl]ethyl]carbamate]	++ (0.6 to 0.8 are scored as ‘++’)
Cc1nnc(CC(O)c2cc(CCC(F)(F)F)ccc2F)o1 (stereo not drawn) [Example 10, 1-[2-fluoro-5-(3,3,3-trifluoropropyl)phenyl]-2-(5-methyl-1,3,4-oxadiazol-2-yl)ethanol]	+ (0.2 to 0.6 are scored as ‘+’)
Cc1nnc(CC(OC(N)=O)c2cc(CCC(F)(F)F)ccc2F)o1 (stereo not drawn) [Example 11, [1-[2-fluoro-5-(3,3,3-trifluoropropyl)phenyl]-2-(5-methyl-1,3,4-oxadiazol-2-yl)ethyl] carbamate]	+ (0.2 to 0.6 are scored as ‘+’)
Cc1nnc(CC(OC(N)=O)c2cc(OCCCC(F)(F)F)ccc2F)o1 (stereo not drawn) [Example 16, [1-[2-fluoro-5-(4,4,4-trifluorobutoxy)phenyl]-2-(5-methyl-1,3,4-oxadiazol-2-yl)ethyl] carbamate]	++ (0.6 to 0.8 are scored as ‘++’)
Cc1nnc(CC(O)c2cc(OCC(F)(F)F)ccc2F)o1 (stereo not drawn) [Example 17, 1-[2-fluoro-5-(2,2,2-trifluoroethoxy)phenyl]-2-(5-methyl-1,3,4-oxadiazol-2-yl)ethanol]	+ (0.2 to 0.6 are scored as ‘+’)
Cc1nnc(CC(OC(N)=O)c2cc(OCC(F)(F)F)ccc2F)o1 (stereo not drawn) [Example 18, [1-[2-fluoro-5-(2,2,2-trifluoroethoxy)phenyl]-2-(5-methyl-1,3,4-oxadiazol-2-yl)ethyl] carbamate]	+ (0.2 to 0.6 are scored as ‘+’)
Cc1nnc(CC(O)c2cccc(OCCCC(F)(F)F)c2)o1 (stereo not drawn) [Example 19, 2-(5-methyl-1,3,4-oxadiazol-2-yl)-1-[3-(4,4,4-trifluorobutoxy)phenyl]ethanol]	+ (0.2 to 0.6 are scored as ‘+’)
Cc1nnc(CC(OC(N)=O)c2cccc(OCCCC(F)(F)F)c2)o1 (stereo not drawn) [Example 20, [2-(5-methyl-1,3,4-oxadiazol-2-yl)-1-[3-(4,4,4-trifluorobutoxy)phenyl]ethyl] carbamate]	+ (0.2 to 0.6 are scored as ‘+’)
CCCCOc1ccc(F)c(C(Cc2nnc(C)o2)OC(N)=O)c1 (stereo not drawn) [Example 22, [1-(5-butoxy-2-fluoro-phenyl)-2-(5-methyl-1,3,4-oxadiazol-2-yl)ethyl] carbamate]	+ (0.2 to 0.6 are scored as ‘+’)
OC(Cc1nnco1)c1cc(OCCCC(F)(F)F)ccc1F (stereo not drawn) [Example 23, 1-[2-fluoro-5-(4,4,4-trifluorobutoxy)phenyl]-2-(1,3,4-oxadiazol-2-yl)ethanol]	+ (0.2 to 0.6 are scored as ‘+’)
NC(=O)OC(Cc1nnco1)c1cc(OCCCC(F)(F)F)ccc1F (stereo not drawn) [Example 24, [1-[2-fluoro-5-(4,4,4-trifluorobutoxy)phenyl]-2-(1,3,4-oxadiazol-2-yl)ethyl] carbamate]	++ (0.6 to 0.8 are scored as ‘++’)
CCCCCc1ccc(F)c(C(Cc2nnc(C)o2)OC(N)=O)c1 (stereo not drawn) [Example 28, [1-(2-fluoro-5-pentyl-phenyl)-2-(5-methyl-1,3,4-oxadiazol-2-yl)ethyl] carbamate]	++ (0.6 to 0.8 are scored as ‘++’)

SMILES	6 Hz, 44 mA protection rate
Cc1nnc(CC(O)c2cc(CCCCC(F)(F)F)ccc2F)o1 (stereo not drawn) [Example 32, 1-[2-fluoro-5-(5,5,5-trifluoropentyl)-phenyl]-2-(5-methyl-1,3,4-oxadiazol-2-yl)ethanol]	+ (0.2 to 0.6 are scored as ‘+’)
Cc1nnc(CC(OC(N)=O)c2cc(CCCC(F)(F)F)ccc2F)o1 (stereo not drawn) [Example 33, [1-[2-fluoro-5-(4,4,4-trifluorobutyl)phenyl]-2-(5-methyl-1,3,4-oxadiazol-2-yl)ethyl] carbamate]	+ (0.2 to 0.6 are scored as ‘+’)
Cc1nnc(CC(OC(N)=O)c2cc(CCCCC(F)(F)F)ccc2F)o1 (stereo not drawn) [Example 34, [1-[2-fluoro-5-(5,5,5-trifluoropentyl)phenyl]-2-(5-methyl-1,3,4-oxadiazol-2-yl)ethyl] carbamate]	++ (0.6 to 0.8 are scored as ‘++’)
Cc1nnc(CC(O)c2cc(C(=O)NCCC(F)(F)F)ccc2F)o1 (stereo not drawn) [Example 37, 4-fluoro-3-[1-hydroxy-2-(5-methyl-1,3,4-oxadiazol-2-yl)ethyl]-N-(3,3,3-trifluoropropyl)benzamide]	+ (0.2 to 0.6 are scored as ‘+’)
Cc1nnc(CC(O)c2cc(OCCCC(F)(F)F)ccc2Cl)o1 (stereo not drawn) [Example 39, 1-[2-chloro-5-(4,4,4-trifluorobutoxy)phenyl]-2-(5-methyl-1,3,4-oxadiazol-2-yl)ethanol]	+ (0.2 to 0.6 are scored as ‘+’)
Cc1nnc(CC(O)c2cc(-c3ccc(C(F)(F)F)cc3)ccc2C)o1 (stereo not drawn) [Example 42, 2-(5-methyl-1,3,4-oxadiazol-2-yl)-1-[2-methyl-5-[4-(trifluoromethyl)phenyl]phenyl]ethanol]	++ (0.6 to 0.8 are scored as ‘++’)
COc1ccc(-c2ccc(C(F)(F)F)cc2)cc1C(O)Cc1nnc(C)o1 (stereo not drawn) [Example 43, 1-[2-methoxy-5-[4-(trifluoromethyl)phenyl]phenyl]-2-(5-methyl-1,3,4-oxadiazol-2-yl)ethanol]	+ (0.2 to 0.6 are scored as ‘+’)
Cc1nnc(CC(O)c2cc(-c3ccc(C(F)(F)F)cc3)ccc2Cl)o1 (stereo not drawn) [Example 48, 1-[2-chloro-5-[4-(trifluoromethyl)phenyl]phenyl]-2-(5-methyl-1,3,4-oxadiazol-2-yl)ethanol]	++ (0.6 to 0.8 are scored as ‘++’)
Cc1nnc(CC(OC(N)=O)c2cc(-c3ccc(C(F)(F)F)cc3)ccc2Cl)o1 (stereo not drawn) [Example 50, [1-[2-chloro-5-[4-(trifluoromethyl)phenyl]phenyl]-2-(5-methyl-1,3,4-oxadiazol-2-yl)ethyl] carbamate]	++ (0.6 to 0.8 are scored as ‘++’)
NC(=O)OC(Cc1nnco1)c1cc(-c2ccc(C(F)(F)F)cc2)ccc1Cl (stereo not drawn) [Example 51, [1-[2-chloro-5-[4-(trifluoromethyl)phenyl]phenyl]-2-(1,3,4-oxadiazol-2-yl)ethyl]carbamate]	+ (0.2 to 0.6 are scored as ‘+’)
OC(Cc1nnco1)c1cccc(-c2ccc(C(F)(F)F)cc2)c1 (stereo not drawn) [Example 52, 2-(1,3,4-oxadiazol-2-yl)-1-[3-[4-(trifluoromethyl)phenyl]phenyl]ethanol]	+ (0.2 to 0.6 are scored as ‘+’)
CCc1nnc(CC(O)c2cccc(-c3ccc(C(F)(F)F)cc3)c2)o1 (stereo not drawn) [Example 53, 2-(5-ethyl-1,3,4-oxadiazol-2-yl)-1-[3-[4-(trifluoromethyl)phenyl]phenyl]ethanol]	+ (0.2 to 0.6 are scored as ‘+’)
CC(=O)OC(Cc1nnc(C)o1)c1cccc(-c2ccc(C(F)(F)F)cc2)c1 (stereo not drawn) [Example 55, [2-(5-methyl-1,3,4-oxadiazol-2-yl)-1-[3-[4-(trifluoromethyl)phenyl]phenyl]ethyl]acetate]	+ (0.2 to 0.6 are scored as ‘+’)
COC(Cc1nnc(C)o1)c1cccc(-c2ccc(C(F)(F)F)cc2)c1 (stereo not drawn) [Example 56, 2-[2-methoxy-2-[3-[4-(trifluoromethyl)phenyl]phenyl]ethyl]-5-methyl-1,3,4-oxadiazole]	++ (0.6 to 0.8 are scored as ‘++’)
Cc1nnc(CC(O)c2cccc(-c3ccc(OC(F)(F)F)cc3)c2)o1 (stereo not drawn) [Example 59, 2-(5-methyl-1,3,4-oxadiazol-2-yl)-1-[3-[4-(trifluoromethoxy)phenyl]phenyl]ethanol]	++ (0.6 to 0.8 are scored as ‘++’)
Cc1nnc(CC(O)c2cccc(-c3ccc(Cl)cc3)c2)o1 (stereo not drawn) [Example 65, 1-[3-(4-chlorophenyl)phenyl]-2-(5-methyl-1,3,4-oxadiazol-2-yl)ethanol]	++ (0.6 to 0.8 are scored as ‘++’)
